Measured values: patent US10869871B2, “Compositions and methods of modulating short-chain dehydrogenase activity” (CASE WESTERN RESERVE UNIVERSITY, priority 2013, dated 2020)
Blank lines part the entries; values can stand above or below the molecule they belong to.

Columns and labels:
bone marrow = test: Homing of CFSE labeled bone marrow cells to marrow of irradiated recipient mice; assay type: in vivo, mouse; settings: for effect on SW033291 induced increase of homing: co-administered with SW033291 10 mg/kg IP
Procedure: Drugs are administered following radiation, following the transplant, and again at 8 hours after the transplant.

mouse bone marrow = test: Hematopoietic colonies from wild-type mouse bone marrow treated ex vivo; assay type: cell-based; settings: 1 μM ex vivo on ice for 2 hours
Description: Treated marrow is again then plated into methylcellulose for counting of hematopoietic colonies.

[1] = tested on: 15-PGDH-luciferase fusion protein reporter in Vaco-9M (V9M) cell line; test: 15-PGDH-luciferase fusion reporter induction in Vaco-9M (V9M) cells; assay type: cell-based
Procedure: Some residual activity is seen for isomer B when added at 3.2 μM concentration. The small residual activity of isomer A may be due to possible 3% contamination with some residual isomer B.

recombinant 15-PGDH [2] = molecular target: T1, recombinant 15-PGDH (Homo sapiens (Human), UniProt P15428); test: Thermal melt shift of recombinant 15-PGDH protein (SYPRO Orange); assay type: binding
recombinant 15-PGDH [3] = molecular target: T1, recombinant 15-PGDH; test: Inhibition of enzymatic activity of recombinant 15-PGDH in an in vitro assay; assay type: biochemical; settings: FIG. 97
15-PGDH protein = test: Western blot of 15-PGDH protein levels in treated cell lines; assay type: cell-based; settings: […] compound for 48 hours
[4] = tested on: 15-PGDH-luciferase fusion reporter in V9m, LS174T and V503 colon cancer cell lines; test: 15-PGDH-luciferase fusion reporter induction in colon cancer cell lines; assay type: cell-based; settings: for luciferase activity of 15-PGDH luciferase fusion cells: V9m, LS174T, V503, relative to DMSO
A549 cells = test: PGE2 levels in medium of IL1-beta stimulated A549 cells; assay type: cell-based
cell culture = test: Toxicity: concentration needed to decrease cell numbers in a cell culture assay; assay type: cell-based
Procedure: Time to inhibition refers to the time needed to inhibit the generation of NADH by 15-PGDH from the moment with drug is added into the reaction mix. Delta Tm refers to the shift in melting temperature of recombinant 15-PGDH in the presence of drug (with cofactor NADH also present). Concentration of Full Cell Line Reporter Induction refers to the concentration of drug that needs to be added to reporter cell line to achieve maximal induction of the 15-PGDH-luciferase gene fusion reporter cassette, as measured by luciferase assays. Hepatocyte stability refers to the half-life of compound in the presence of hepatocytes in culture. Toxicity refers to the concentration of compound needed to decrease cell numbers in a cell culture assay.

[5] = Chemical stability in aqueous solutions; assay type: physicochemical; settings: over broad pH range
[6] = tested on: PGE2 in colon, bone marrow, liver, lung; test: PGE2 in mouse tissues after IP injection; assay type: in vivo
[7] = Stability when incubated with liver extracts; assay type: in vitro ADME; settings: incubated with mouse, rat and human liver extracts
cell lines = test: PGE2 production by cell lines; assay type: cell-based; settings: read-out: EC50 for increase of PGE2 production by cell lines
[8] = Immediate toxicity after IP injection into mice; assay type: in vivo; settings: injected IP into mice at 50 mg/kg body weight

T1 sequence (P15428 whole entry): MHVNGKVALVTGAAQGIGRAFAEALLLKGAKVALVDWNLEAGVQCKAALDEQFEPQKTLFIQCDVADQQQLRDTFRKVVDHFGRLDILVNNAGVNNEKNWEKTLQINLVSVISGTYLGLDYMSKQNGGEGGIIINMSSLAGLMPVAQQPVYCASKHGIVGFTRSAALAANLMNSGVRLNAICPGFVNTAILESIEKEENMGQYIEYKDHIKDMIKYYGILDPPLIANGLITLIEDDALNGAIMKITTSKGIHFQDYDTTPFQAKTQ

Molecule: CCCCc1nn(-c2ccccc2C(F)(F)F)c(=O)n1Cc1ccc(-c2ccccc2S(=O)(=O)NC(=O)c2sccc2C)cc1 [L-161,982]
effect on SW033291 induced increase of homing (bone marrow): near completely blocked

Molecule: COc1ccc2cc(OCC3(C(=O)O)CN(C(=O)c4ccc(F)cc4)C3)ccc2c1 [PF-04418948]
effect on SW033291 induced increase of homing (bone marrow): partially blocked

Molecule: CCCCC[C@H](O)/C=C/[C@H]1[C@H](O)CC(=O)[C@@H]1C/C=C\CCCC(=O)O [PGE2, prostaglandin E2]
increase in number of bone marrow derived colonies relative to SW033291 (mouse bone marrow): lesser increase

Molecule: CCCC[S@](C)(O)c1sc2nc(-c3cccs3)cc(-c3ccccc3)c2c1N [SW033291 isomer B]
concentration giving full reporter activity [1]: 0.1 µM
melting temperature of 15-PGDH (recombinant 15-PGDH [2]; Differential Scanning Fluorimetry, DMSO control 50.5° C.): 68 °C
IC50 lower than the parent racemic mixture (recombinant 15-PGDH [3]): 40%

direct binding to 15-PGDH by melting temperature shift (recombinant 15-PGDH [2]; 10 μM and 100 μM cofactor NAD or NADH): cannot be demonstrated to bind 15-PGDH
Molecule: COc1ccc(OC)c(N(CC(=O)Nc2cccnc2)S(=O)(=O)c2ccccc2)c1 [SW054384]
levels of 15-PGDH protein (western blot) (15-PGDH protein): increase levels of 15-PGDH protein
luciferase activity of 15-PGDH luciferase fusion cells [4]: increase luciferase activity

Molecule: O=C(c1ccc2nc(-c3ccccc3)c(-c3ccccc3)nc2c1)N1CCCCC1 [SW145753]
levels of 15-PGDH protein (western blot) (15-PGDH protein): increase levels of 15-PGDH protein
luciferase activity of 15-PGDH luciferase fusion cells [4]: increase luciferase activity
PGE2 level in medium, reflecting 15-PGDH activity (A549 cells; IL1-beta 23 hours, compound added for last 5 hours): clear inhibition of 15-PGDH activity

Molecule: CCCC[S+]([O-])c1sc2nc(-c3cccs3)ccc2c1N (stereo not shown) [SW206980]
Toxicity (cell culture): >7.5 µM
highest PGE2 level achieved in medium (A549 cells; IL-1β 16 h, compound 8 h): 2500 pg/mL

Molecule: CCCC[S+]([O-])c1sc2nc(-c3nccs3)ccc2c1N (stereo not shown) [SW206992]
Concentration for Full Cell Line Reporter Induction ([4]; concentration to achieve maximal induction of 15-PGDH-luciferase reporter): >1 µM
Toxicity (cell culture): >7.5 µM
concentration at which maximal PGE2 effect attained (A549 cells; IL-1β 16 h, compound 8 h): 2.5 µM
highest PGE2 level achieved in medium (A549 cells; IL-1β 16 h, compound 8 h): 2100 pg/mL

Molecule: CCCC[S+]([O-])c1sc2nc(-c3nccs3)cc(-c3cnc(C)n3C)c2c1N (stereo not shown) [SW209415, 2-(butylsulfinyl)-4-(1,2-dimethyl-1H-imidazol-5-yl)-6-(thiazol-2-yl)thieno[2,3-b]pyridin-3-amine]
increase of homed cells in recipient mouse bone marrow (bone marrow; 10 mg/kg IP, FACS 16 hours post-transplant): approximately 2.5 fold

Molecule: CCCCC(C)(C)[C@H](O)/C=C/[C@H]1[C@H](O)CC(=O)[C@@H]1C/C=C\CCCC(=O)O [dmPGE2, 16,16-dimethyl PGE2]
increase in number of bone marrow derived colonies relative to SW033291 (mouse bone marrow): slightly greater increase

Molecule: CCCC[S+]([O-])c1sc2nc(-c3nccs3)cc(-c3cnc(C)n3C)c2c1N (stereo not shown) [formula (XIII)]
chemical stability in aqueous solutions [5]: chemically stable in aqueous solutions over broad pH range
PGE2 levels in colon, lung, liver and bone marrow ([6]; IP dose of 10 mg/kg body weight): elevates PGE2 levels
homing of hematopoietic stem cells following bone marrow transplantation (bone marrow; mouse, 10 mg/kg body weight): increases homing of hematopoietic stem cells
chemical stability with liver extracts [7]: chemically stable when incubated with mouse, rat and human liver extracts
EC50 (cell lines): ~20 nM
immediate toxicity over 24 hours [8]: no immediate toxicity

Molecule: COc1ccc2c(c1)c(CC(=O)O)c(C)n2C(=O)c1ccc(Cl)cc1 [indomethacin]
effect on SW033291 induced increase of homing (bone marrow): near completely blocked

Molecule: (+) SW209415
peak PGE2 levels in lung, liver, colon and bone marrow ([6]; IP 0.5, 1.5 or 5 mg/kg, peak at 3 hours): approximately double those of vehicle control
